The record followed here is ChEMBL document CHEMBL5512689, “Discovery of Clinical Candidate PF-06648671: A Potent γ-Secretase Modulator for the Treatment of Alzheimer's Disease” (J Med Chem, 2024).

Data set [1] can be described thus: Drug penetration in rat assessed as Unbound brain-to-plasma concentration ratio. The format is ADME, cell-free. The settings on record: read-out: K(p,uu,brain).
Data set [2] in a line: Oral bioavailability in human at 5 mg/kg. The settings on record: in vivo. In kind it is ADME, organism-based.
The nature of data set [3]: Oral bioavailability in rat at 5 mg/kg. The format is ADME, organism-based. The settings on record: in vivo.
A short description of data set [4]: Lipophilicity, log D of the compound. In kind it is physicochemical. The settings on record: octanol/water.
Data set [5] can be described thus: Oral bioavailability in dog at 5 mg/kg. In kind it is ADME, organism-based, Canis lupus familiaris. The settings on record: in vivo.
The nature of data set [6]: Apparent permeability across apical to basolateral side in dog RRCK cells. In kind it is ADME, cell-based, Canis lupus familiaris, MDCKII-LE. The settings on record: MDCK.
Data set [7] can be described thus: Lipophilicity, log D of the compound by shake flask method. The settings on record: octanol/water. In kind it is physicochemical.
Data set [8] is described as follows: Volume of distribution at steady state in human at 1 mg/kg, iv. In kind it is ADME, organism-based. To be noted: in vivo, read-out: Vdss.
Data set [9] can be described thus: Volume of distribution at steady state in dog at 1 mg/kg, iv. The format is ADME, organism-based, Canis lupus familiaris. To be noted: in vivo, read-out: Vdss.
Data set [10] in a line: Drug penetration in human assessed as Unbound brain-to-plasma concentration ratio. In kind it is ADME, cell-free. To be noted: read-out: K(p,uu,brain).
Data set [11] is described as follows: Volume of distribution at steady state in rat at 1 mg/kg, iv. The settings on record: in vivo, read-out: Vdss. In kind it is ADME, organism-based.
Data set [12] is described as follows: Ratio of drug concentration in brain to plasma in rat at 10 mg/kg, po. In kind it is ADME, organism-based. The settings on record: read-out: BPR.
The nature of data set [13]: Kinetic solubility of compound at pH 6.5. To be noted: buffer, read-out: Kinetic_solubility. The format is physicochemical.
Data set [14] in a line: Drug penetration in Non human primate assessed as unbound brain-to-plasma concentration ratio. In kind it is ADME, cell-free. To be noted: primates, read-out: K(p,uu,brain).

Values after ≈ are worked out from the molar mass of the structure shown.

Broadly, the bioavailability is the share of a dose that reaches the circulation, judged against a reference dose that is usually intravenous. Usually logD stands for the decadic logarithm of the distribution of all forms, ionised or not, between an organic phase and buffer at a given pH. Read a low logD as lower lipophilicity. The term Papp A→B denotes how fast a substance crosses the layer from the apical side.

On to `Cc1cn(-c2ccc3n(c2=O)CCN([C@@H](C)[C@@H]2CC[C@H](c4cc(F)c(C(F)(F)F)c(F)c4)O2)C3=O)cn1`, for which, in data set [1], the Kp uu turned out to be 0.08.
Still for that read-out and setting: then `Cc1cn(-c2ccc3n(c2=O)CCN([C@@H](C)[C@@H]2CC[C@H](c4ccc(C(F)(F)F)c(F)c4F)O2)C3=O)cn1`, with 0.5.
Turning to `Cc1cn(-c2ccc3n(c2=O)CCN([C@@H](C)[C@@H]2CC[C@H](c4cc(F)c(Cl)cc4C(F)(F)F)O2)C3=O)cn1`, the bioavailability came to 60% in data set [2], 67% in data set [3] and 88% in data set [5]. In addition, the logD in data set [4] came out at 5; in data set [7], 4.2. Further, in [6], the Papp A→B is 5.8 ×10⁻⁶ cm/s. Further, the Kp uu in data set [1] came out at 0.7; in data set [10], 1. In addition, the values for the Vd in data set [8], in [9] and in data set [11] were 1.3 L/kg, 0.7 L/kg and 0.8 L/kg, respectively. Besides, the Kp in data set [12] was 1.5. Further, the solubility kinetic in [13] turned out to be 44.8 µM (≈ 24.1 µg/mL).
Take `Cc1cn(-c2ccc3n(c2=O)CCN([C@@H](C)[C@@H]2CC[C@H](c4ccc(C(F)(F)F)cc4)O2)C3=O)cn1`: the Kp uu in [1] was determined as 0.5.
For the molecule `Cc1cn(-c2ccc3n(c2=O)CCN([C@@H](C)[C@@H]2CC[C@H](c4ccc(Cl)cc4C(F)(F)F)O2)C3=O)cn1`, the Kp uu is 0.5 in data set [1] and 1 in data set [14].
